From patent US6649797B2, “Compounds and methods of use to treat infectious diseases” (The Picower Institute for Medical Research, priority 1996, dated 2003)

Assays:
[1] = biological target: T1, pseudovirion-derived nucleoprotein complexes / karyopherin α (Human immunodeficiency virus type 1 group M subtype B, UniProt P04591); assay: Binding of pseudovirion-derived nucleoprotein complexes to GST-karyopherin α; assay type: biochemical, HIV-1; settings: various concentrations
T1 construct: composed exclusively of Gag (MA, CA, NC, p6) and Env (gp41 and gp120) proteins; endogenous in cells; host or cells: cytoplasmic lysate of H9 cells inoculated with HIV-like gag-env pseudovirions (Haffar et al. 1990)
Protocol: (§1) Cytoplasmic lysates of H9 cells infected with HIV-1RF (upper panel) or HIV-like pseudovirions (bottom panel) were treated for 2 hours with various concentrations of CNI-H0294, and were then mixed with GST-karyopherin α immobilized on glutathione Sepharose beads. HIV-1 DNA or RNA that co-precipitated with karyopherin α was quantified as in A and B.
H9 cells were infected with HIV-1 or HIV-like pseudovirions (Haffar, et al., 1990, J. Virol., 64:2653-2659) at a multiplicity adjusted according to p24 content (50 ng p24 per 10^6 cells) The MA NLS^− virus contains substitutions of isoleucine residues for lysines in positions 26 and 27 of MA in an NLHX backbone (Westervelt., et al., 1992, J. Virol. 66:2577-2582), thus inactivating the NLS. The Vpr^− virus has the initiating ATG of the vpr gene changed to GTG, thus abolishing expression of this gene. The ΔMA NLS pseudovirions have leucine substituting for lysine in position 28 of MA. This mutation abrogates nuclear translocation of HIV-1 gag RNA in growth-arrested H9 cells infected with pseudovirions. […]
Cytoplasmic extracts prepared from HIV-1-or pseudovirion-infected H9 cells were adjusted to 0.14 M NaCl, 0.1% Tween 20 and precleared with glutathione-Sepharose beads for 30 min. at room temperature. Karyopherin α was expressed as a fusion protein with glutathione S-transferase (GST) which can bind glutathione beads in solution. […]

[2] = test system: HIV-1 pre-integration complexes / karyopherin α; assay: Binding of HIV-1 pre-integration complexes to GST-karyopherin α; assay type: biochemical; settings: for reduction of karyopherin α/HIV-1 binding: lysates of HIV-1RF infected H9 cells treated 2 hours, Phosphorimager
Protocol: as §1
Cytoplasmic lysates prepared from H9 cells infected with HIV-1RF were treated with 10 μM CNI-H3094 (lane 1) or with 1 μM CNI-H0294 and 10 μM (lane 5), 5 μM (lane 4), 1 μM (lane 3), or no CNI-H3094 (lane 2). The amount of pre-integration complexes available for interaction with karyopherin α was quantified as in FIG. 10.
H9 cells were infected with equal amounts of wild-type HIV-1NLHX or with mutant HIV-1NLHX that lack Vpr (Vpr^−) or carry a mutation that inactivates the MA NLS (MA NLS^−). Infected cells were washed and incubated for 4 h. An aliquot of each sample was used to quantify the total HIV-1 DNA (FIG. 14A) and the rest was used to prepare cytoplasmic extracts. Extracts were incubated with 1 μM CNI-H0294 (FIG. 14B, lanes 2, 4, 6, 8) or were left untreated (lanes 1, 3, 5, 7). The amount of pre-integration complexes available for binding to karyopherin α was determined as in FIG. 10.
H9 cells were infected with HIV-1 or HIV-like pseudovirions (Haffar, et al., 1990, J. Virol., 64:2653-2659) at a multiplicity adjusted according to p24 content (50 ng p24 per 10^6 cells) The MA NLS^− virus contains substitutions of isoleucine residues for lysines in positions 26 and 27 of MA in an NLHX backbone (Westervelt., et al., 1992, J. Virol. 66:2577-2582), thus inactivating the NLS. The Vpr^− virus has the initiating ATG of the vpr gene changed to GTG, thus abolishing expression of this gene. The ΔMA NLS pseudovirions have leucine substituting for lysine in position 28 of MA. This mutation abrogates nuclear translocation of HIV-1 gag RNA in growth-arrested H9 cells infected with pseudovirions. After a 1 hour absorption, excess viruses or pseudovirions were washed away, and cells were incubated for an additional 2-3 hour period at 37° C. prior to analysis.
Cytoplasmic extracts were prepared by lysing cells in cold extraction buffer (10 mM KCl, 10 mM Tris-HCl [pH 7.6], 0.5 mM MgCl2, 1 μg/ml each of leupeptin and aprotinin, and 1 MM phenylmethylsulfonyl fluoride [PMSF]) by 20-30 strokes of a Dounce homogenizer under the control of phase-contrast microscopy. After removal of nuclei, cytoplasmic extract was cleared by centrifugation at 15,000 g for 10 min.
Cytoplasmic extracts prepared from HIV-1-or pseudovirion-infected H9 cells were adjusted to 0.14 M NaCl, 0.1% Tween 20 and precleared with glutathione-Sepharose beads for 30 min. at room temperature. Karyopherin α was expressed as a fusion protein with glutathione S-transferase (GST) which can bind glutathione beads in solution. GST-karyopherin α immobilized on Sepharose beads was then added (about 50 μg of immobilized karyopherin α per extract from 108 infected cells) and the mixture was incubated at room temperature for another 30 min. Beads were then pelleted by centrifugation and washed 3 times with PBS supplemented with 0.1% Tween 20, 1 μg/ml each of leupeptin and aprotinin, and 1 mM PMSF. HIV-1 DNA was isolated from the beads by SDS-proteinase K treatment with subsequent phenol-chloroform extraction, while pseudovirion gag RNA was isolated by RNazol (Biotecx Laboratories Inc.).

In the case of `CC(=O)c1cc(Nc2cc(C)[n+](C)c(N)n2)cc(C(C)=O)c1` [CNI-0294, 2-Amino-4-(3,5-diacetylphenyl)amino-1,6-dimethylpyrimidinium chloride], the “inhibition of binding of karyopherin α to pseudovirion-derived nucleoprotein complexes” value [1] is reported as “did not inhibit”, the “reduction of karyopherin α/HIV-1 binding” value ([2]; 0.1 μM) is reported as 8 fold and the “effect on binding of karyopherin α to complexes” value ([2]; 1 μM, MA NLS^− complexes) is reported as “had no effect”. For the same molecule, the “diminished binding of karyopherin α to complexes” value ([2]; 1 μM, Vpr^− complexes) was 95%, the “reduction of karyopherin α/HIV-1 binding” value ([2]; 1 μM) was 25 fold and the “diminished binding of karyopherin α to complexes” value ([2]; 1 μM, wild-type (wt) HIV-1NLHX complexes) was 95%. The “interaction of pre-integration complexes with karyopherin α” value ([2]; 10 μM (FIG. 13A)) was “blocked the interaction”.
